In PubChem BioAssay (NCI):
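96-well plates; 48 h exposure; 5 concentrations. Endpoints by linear interpolation between flanking doses. Not reached: highest tested concentration assigned. At the TGI there is no net growth.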

Legend:
Assay in all cases: growth of human tumour cells (NCI), 48 h
786-0 renal = test system: 786-0 renal
A498 renal = test system: A498 renal
A549 NSCLC = test system: A549 NSCLC
ACHN renal = test system: ACHN renal
BT-549 breast = test system: BT-549 breast
CAKI-1 renal = test system: CAKI-1 renal
CCRF-CEM leukemia = test system: CCRF-CEM leukemia
COLO 205 colon = test system: COLO 205 colon
DU-145 prostate = test system: DU-145 prostate
EKVX NSCLC = test system: EKVX NSCLC
HCC-2998 colon = test system: HCC-2998 colon
HCT-116 colon = test system: HCT-116 colon
HCT-15 colon = test system: HCT-15 colon
HL-60(TB) leukemia = test system: HL-60(TB) leukemia
HOP-62 NSCLC = test system: HOP-62 NSCLC
HOP-92 NSCLC = test system: HOP-92 NSCLC
HS 578T breast = test system: HS 578T breast
HT29 colon = test system: HT29 colon
IGROV1 ovarian = test system: IGROV1 ovarian
K-562 leukemia = test system: K-562 leukemia
KM12 colon = test system: KM12 colon
LOX IMVI melanoma = test system: LOX IMVI melanoma
M14 melanoma = test system: M14 melanoma
MALME-3M melanoma = test system: MALME-3M melanoma
MCF7 breast = test system: MCF7 breast
MDA-MB-231 breast = test system: MDA-MB-231 breast
MDA-MB-435 = test system: MDA-MB-435
MDA-N = test system: MDA-N
MOLT-4 leukemia = test system: MOLT-4 leukemia
NCI-H226 lung = test system: NCI-H226 lung
NCI-H23 lung = test system: NCI-H23 lung
NCI-H460 lung = test system: NCI-H460 lung
NCI-H522 lung = test system: NCI-H522 lung
NCI/ADR-RES ovarian = test system: NCI/ADR-RES ovarian
OVCAR-3 ovarian = test system: OVCAR-3 ovarian
OVCAR-4 ovarian = test system: OVCAR-4 ovarian
OVCAR-5 ovarian = test system: OVCAR-5 ovarian
OVCAR-8 ovarian = test system: OVCAR-8 ovarian
PC-3 prostate = test system: PC-3 prostate
RPMI-8226 leukemia = test system: RPMI-8226 leukemia
RXF 393 renal = test system: RXF 393 renal
SF-268 CNS = test system: SF-268 CNS
SF-295 CNS = test system: SF-295 CNS
SF-539 CNS = test system: SF-539 CNS
SK-MEL-2 melanoma = test system: SK-MEL-2 melanoma
SK-MEL-28 melanoma = test system: SK-MEL-28 melanoma
SK-MEL-5 melanoma = test system: SK-MEL-5 melanoma
SN12C renal = test system: SN12C renal
SNB-19 CNS = test system: SNB-19 CNS
SNB-75 CNS = test system: SNB-75 CNS
SR leukemia = test system: SR leukemia
SW-620 colon = test system: SW-620 colon
TK-10 renal = test system: TK-10 renal
U251 CNS = test system: U251 CNS
UACC-257 melanoma = test system: UACC-257 melanoma
UO-31 renal = test system: UO-31 renal
SK-OV-3 ovarian = test system: SK-OV-3 ovarian
T-47D breast = test system: T-47D breast
UACC-62 melanoma = test system: UACC-62 melanoma

Measured: TGI

O=c1[nH]c(=O)n(COCCO)c2ccsc12
not listed: SK-OV-3 ovarian | T-47D breast | UACC-62 melanoma
> 100 µM: all other assays above

CC(C)(C)CC(C)(C)NC(=S)NO
not listed: BT-549 breast | U251 CNS
> 100 µM: all other assays above
